Source: patent US20230022157A1 (Achillion Pharmaceuticals, Inc., priority 2018, published 2023)
Where two headings read alike, the source gives them in different places.

Molecular target: T1, Human Factor D (Homo sapiens, UniProt P00746)
T1 construct: purified from human serum; purchased Complement Technology, Inc; host or cells: human serum (natural protein, not recombinant)
Experiment: Human Factor D Assay
Assay type: biochemical
Conditions: Human Factor D 80 nM, substrate Z-L-Lys-SBzl, read-out: IC50 (Stars)
Protocol: Human Factor D (purified from human serum, Complement Technology, Inc.) at 80 nM final concentration is incubated with test compound at various concentrations for 5 min at room temperature in 50 mM Tris, 1M NaCl, pH 7.5. A synthetic substrate Z-L-Lys-SBzl and DTNB (Ellman's reagent) are added to final concentrations of 100 μM each. […] IC50 values are calculated by nonlinear regression of complement Factor D reaction rates as a function of test compound concentration.

T1 sequence (P00746 26-253): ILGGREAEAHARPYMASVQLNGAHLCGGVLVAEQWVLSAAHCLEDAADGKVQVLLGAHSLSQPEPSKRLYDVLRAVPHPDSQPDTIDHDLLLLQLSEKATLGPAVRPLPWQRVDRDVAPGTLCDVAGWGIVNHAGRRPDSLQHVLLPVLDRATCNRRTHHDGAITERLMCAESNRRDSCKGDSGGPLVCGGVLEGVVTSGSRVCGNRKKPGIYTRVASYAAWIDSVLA

IC50 (Table 2) [nM]	IC50 (assay of Example 3) [nM]	SMILES
< 1000		CC(=O)c1nn(CC(=O)N2[C@H](C(=O)Nc3nc(Br)ccc3C)C[C@@]3(C)C[C@@H]23)c2ccc(-c3cnc(C(=O)O)nc3)cc12 [Compound 47, 5-(3-acetyl-1-(2-((1R,3S,5R)-3-((6-bromo-3-methylpyridin-2-yl)carbamoyl)-5-methyl-2-azabicyclo[3.1.0]hexan-2-yl)-2-oxoethyl)-1H-indazol-5-yl)pyrimidine-2-carboxylic acid]
< 1000		CC(=O)c1cn(CC(=O)N2[C@H](C(=O)Nc3ccc(C)c(Br)n3)C[C@@]3(C)C[C@@H]23)c2c(C)cc(-c3cnc(C)nc3)cc12 [Compound 156, (1R,3S,5R)-2-(2-(3-acetyl-7-methyl-5-(2-methylpyrimidin-5-yl)-1H-indol-1-yl)acetyl)-N-(6-bromo-5-methylpyridin-2-yl)-5-methyl-2-azabicyclo[3.1.0]hexane-3-carboxamide]
< 1000		CC(=O)c1cn(CC(=O)N2C[C@H]3C[C@H]3[C@H]2C(=O)Nc2nc(Br)c(F)cc2C)c2c(C)cc(-c3cnc(CO)nc3)cc12 [Compound 83, (1R,2S,5S)-3-(2-(3-acetyl-5-(2-(hydroxymethyl)pyrimidin-5-yl)-7-methyl-11H-indol-1-yl)acetyl)-N-(6-bromo-5-fluoro-3-methylpyridin-2-yl)-3-azabicyclo[3.1.0]hexane-2-carboxamide]
< 1000		CC(=O)c1cn(CC(=O)N2[C@H](C(=O)Nc3nc(C(F)(F)F)ccc3C)C[C@@]3(C)C[C@@H]23)c2c(C)cc(-c3cnc4cc(CF)nn4c3)cc12 [Compound 228, (1R,3S,5R)-2-(2-(3-acetyl-5-(2-(fluoromethyl)pyrazolo[1,5-a]pyrimidin-6-yl)-7-methyl-1H-indol-1-yl)acetyl)-5-methyl-N-(3-methyl-6-(trifluoromethyl)pyridin-2-yl)-2-azabicyclo[3.1.0]hexane-3-carboxamide]
	< 1000	CC[C@@H](C)NC(=O)[C@@H]1C[C@@]2(C)C[C@H]2N1C(=O)Cn1nc(C(C)=O)c2cc(-c3cnc(C)nc3)ccc21 [Compound 11, (1R,3S,5R)-2-(2-(3-Acetyl-5-(2-methylpyrimidin-5-yl)-1H-indazol-1-yl)acetyl)-N—((R)-sec-butyl)-5-methyl-2-azabicyclo[3.1.0]hexane-3-carboxamide]

Further lines, the compound ahead of its results:

SMILES	IC50 (Table 2) [nM]	IC50 (assay of Example 3) [nM]
Cc1ncc(-c2cc3c(C(N)=O)nn(CC(=O)N4C[C@H]5C[C@H]5[C@H]4C(=O)Nc4nc(Br)c(F)cc4C)c3c(C)n2)cn1 [Compound 111, 1-{2-[2-(6-Bromo-5-fluoro-3-methyl-pyridin-2-ylcarbamoyl)-3-aza-bicyclo[3.1.0]hex-3-yl]-2-oxo-ethyl}-7-methyl-5-(2-methyl-pyrimidin-5-yl)-1H-pyrazolo[3,4-c]pyridine-3-carboxylic acid amide]	< 1000	
Cc1cc(F)c(Br)nc1NC(=O)[C@@H]1[C@@H]2C[C@@H]2CN1C(=O)Cn1nc(C(N)=O)c2cc(-c3cnc(CO)nc3)nc(C)c21 [Compound 168, 1-(2-((1R,2S,5S)-2-((6-bromo-5-fluoro-3-methylpyridin-2-yl)carbamoyl)-3-azabicyclo[3.1.0]hexan-3-yl)-2-oxoethyl)-5-(2-(hydroxymethyl)pyrimidin-5-yl)-7-methyl-1H-pyrazolo[3,4-c]pyridine-3-carboxamide]	< 1000	
CC(=O)c1nn(CC(=O)N2[C@H](C(=O)Nc3nc(Br)ccc3C)C[C@@]3(C)C[C@@H]23)c2ccc(-c3cncc(S(N)(=O)=O)c3)cc12 [Compound 71, (1R,3S,5R)-2-(2-(3-Acetyl-5-(5-sulfamoylpyridin-3-yl)-1H-indazol-1-yl)acetyl)-N-(6-bromo-3-methylpyridin-2-yl)-5-methyl-2-azabicyclo[3.1.0]hexane-3-carboxamide]	< 1000	
CC(=O)c1nn(CC(=O)N2[C@H](C(=O)N[C@@H](C)CC(C)C)C[C@@]3(C)C[C@@H]23)c2ccc(-c3cnc(C)nc3)cc12 [Compound 10, (1R,3S,5R)-2-(2-(3-Acetyl-5-(2-methylpyrimidin-5-yl)-1H-indazol-1-yl)acetyl)-5-methyl-N—((S)-4-methylpentan-2-yl)-2-azabicyclo[3.1.0]hexane-3-carboxamide]		< 1000
